Laboratory results as given in patent publication US20090252754A1, “Vaccines containing the hiv tat protein as an adjuvant for the enhancement of cytotoxic t-cell responses” (priority 2003, published 2009).

How the values were obtained:
[1] = test system: MIN and MON LCL's (EBV IVT, AVF, YLQ, CLG epitopes); test: Cytotoxicity assay of EBV epitope-specific CTLs against LCL targets
Description: HLA A11-restricted EBV-specific CTL cultures reacting against the EBNA4-derived [sequence] (SEQ ID NO 280) (IVT) and [sequence] […] (SEQ ID NO 282) (CLG) epitope, corresponding to amino acid 426-434^28, and the Lmp1-derived [sequence] […] The first stimulation was performed in RPMI 1640 medium containing 10% FCS. A second and a third stimulation were performed in the same conditions on day 7 and day 14. Starting from day 8 the medium was supplemented with 10 U/ml rIL-2 (Chiron, Milan, Italy).
Target cells were labelled with Na2^51CrO4 for 90 min at 37° C. Cytotoxicity tests were routinely run at different effector: target ratios in triplicate. Percent specific lysis was calculated as 100×(cpm sample−cpm medium)/(cpm Triton X-100−cpm medium)^27. Spontaneous release was always less than 20%.
To this purpose, the HLA-2 and -A11 positive MIN LCL and the HLA-A2 positive MON LCL, transduced or not with Tat, were tested as target in cytotoxic assays using CTL cultures specific for the IVT, AVF, CLG and YLQ epitopes (FIG. 6).

[2] = test system: proteasomes purified from Jurkat cells; test: Enzymatic assays of proteasomes purified from Jurkat cells treated with Tat; format: biochemical, human; settings: proteasomes from Jurkat cells treated for 24 h with 1 μg/ml Tat protein vs control cells
Description: (§1) Cells were lysed with glass beads as previously described (4). Supernatants were ultracentrifuged for 1 h at 100,000 g and loaded into an affinity column containing a matrix derivatised with the MCP21 mAb specific for the α2 subunit of the proteasome (Affinity, Exeter, UK). Proteasomes were eluted with 25 mM Tris-HCl pH 7.5 containing 2 M NaCl, and 0.5 ml fractions were collected. Homogeneity of the eluted material was confirmed by analysis of an aliquot by SDS 12% PAGE and Coomassie blue staining of the gel. Fractions containing proteasomes were combined and dialysed against 25 mM Tris-HCl pH 7.5. Protein concentration was determined using the BCA method (Pierce Chemical, Rockford, Ill.).
The chymotrypsin-like, trypsin-like and post-acidic activities of purified proteasomes were tested using the fluorogenic substrates Suc-LLVY-AMC, Boc-LRR-AMC and Ac-YVAD-AMC, respectively, as previously described (4). Fluorescence was determined by a fluorimeter (Spectrafluor plus, Tecan, Salzburg, Austria). Proteasome activity is expressed as arbitrary fluorescence units.
To investigate whether the differences in subunit composition correlated with differences in enzymatic activity, we analysed the cleavage specificity of equal amounts of proteasomes purified from Jurkat cells treated for 24 h with 1 μg/ml Tat protein or from control cells. […]

[3] = test system: proteasome subunits (α2, LMP2, LMP7, MECL1) in Jurkat cells; test: Western blot of proteasome subunits in Jurkat cells expressing or treated with Tat, Tat mutants or Tat peptides; format: cell-based, human
Description: Jurkat T cells expressing Tat or mutated Tat (referred to as Tat22, wherein a Cys at position 22 is mutated) have previously been described (1). Cells were cultured in a medium supplemented with 800 μg/ml neomycin (Sigma, St. Louise, […].).
as §1
Equal amounts of proteins, or equal amounts of purified proteasomes, were loaded on a 12% SDS-PAGE and electro-blotted onto Protran nitrocellulose membranes (Schleicher & Schuell, Keene, Hampshire, USA). Blots were probed with Abs specific for α2, LMP2 LMP7, MECL1, and PA28α subunits (Affinity), and developed by enhanced chemi-luminescence (ECL, Amersham Pharmacia Biotech, Uppsala, SW).

LMP2 = LMP2 expression in splenocytes of mice treated i.m. with Tat (Western blot); format: in vivo; settings: Balb/c mice, 1 μg i.m., 3 consecutive treatments
Description: Equal amounts of proteins were loaded on a 12% SDS-PAGE gel and electroblotted onto Protran nitrocellulose membranes (Schleicher & Schuell, Keene, Hampshire, USA). The blots were probed with antibodies specific for α2, LMP2, LMP7, MECL1, and PA28α subunits (Affinity, Exeter, UK) and developed by enhanced chemiluminescence (ECL, Amersham Pharmacia Biotech, Uppsala, SW).
Animal use was according to national and institutional guidelines. Seven-to-eight week old female Balb/c mice (Nossan, Milan, Italy) were injected with native monomeric biologically active Tat protein (1 μg) resuspended in degassed sterile PBS. Control mice were injected with oxidised Tat (1 μg) or with PBS alone. Samples (100 μl) were given by intramuscular (i.m.) injections in the quadriceps muscles of the posterior legs. Each experimental group consisted of three mice, and the experiment was repeated twice. Mice were boosted at days 11 and 20 after the first injection. Seven days after the last injection, animals were anaesthetised intraperitoneally (i.p.) with 100 μl of isotonic solution containing 1 mg of Inoketan (Virbac, Milan, Italy), and 200 μg Rompun (Bayer, Milan, Italy) and sacrificed to collect spleens. Mononuclear cells from individual spleens were purified using cells strainers, resuspended in PBS containing 20 mM EDTA, and treated with a red blood cells lysis buffer for 4 minutes at room temperature. […]

[4] = test system: proteasomes purified from MIN and MON LCL's; test: Enzyme assays of proteasomes purified from LCL's (Suc-LLVY-AMC, Boc-LRR-AMC, Ac-YVAD-AMC); format: biochemical, human
Description: Cells (5×10^7) were washed in cold PBS and resuspended in buffer containing 50 mM Tris-HCl pH 7.5, 5 mM MgCl2, 1 mM dithiothreitol (DTT, Sigma), 2 mM ATP, 250 mM sucrose. Glass beads equivalent to the volume of the cellular suspension were added and cells were vortexed for 1 min at 4° C. Beads and cell debris were removed by 5 minutes centrifugation at 1000×g, followed by 20 minutes centrifugation at 10,000×g. Supernatants were ultracentrifuged for 1 hour at 100,000×g^44. Supernatants were loaded into an affinity column containing an agarose matrix derivatised with the MCP21 mAb specific for the α2 subunit of the proteasome (Affinity, Exeter, UK). […] Protein concentration was determined using BCA protocol (Pierce Chemical).
The fluorogenic substrates Suc-LLVY-AMC, Boc-LRR-AMC and Ac-YVAD-AMC were used to measure chymotrypsin-like, trypsin-like and post-acidic proteasome activities, respectively. […] Fluorescence was determined by a fluorimeter (Spectrafluor plus, Tecan, Salzburg, Austria) using an excitation of 360 nm and emission of 465 nm. Proteasome activity is expressed in arbitrary fluorescence units^11.
To investigate whether the differences in subunit composition detected by Western blot analysis correlated with differences in enzymatic activity, we analysed the cleavage specificity of equal amount of proteasomes isolated from MIN-Tat and MON-Tat cells or control cells. […]

[5] = LCL expressing endogenous Tat vs empty vector
[6] = MIN LCL treated with 0.1 μg/ml Tat protein for 24 hours vs untreated
[7] = endogenous expression of Tat in Jurkat cells

Substance: Tat: HIV-1 Tat protein from HTLV type IIIB isolate, expressed in E. Coli or endogenously in cells; wild type SEQ ID NO 284
- IVT- and AVF-specific CTL killing [1, 5]: decrease
- YLQ- and CLG-specific killing [1, 5]: increase
- lysis by YLQ- and CLG-specific CTLs [1, 6]: lysed at higher efficiency
- sensitivity to IVT- and AVF-specific CTL killing [1, 6]: less sensitive
- chymotryptic-like, tryptic-like and post-acidic activities [2]: all augmented
- LMP2 expression in total cell lysates ([3]; Jurkat cells treated for 24 h with 0.1 μg/ml): induced down-regulation
- expression of LMP2 subunit from purified proteasomes ([3]; Jurkat cells, exogenous native Tat, 24 h, 0.1-1 μg/ml): maximal down-modulation
- expression of LMP2 [3, 7]: down-regulation
- expression of LMP7 [3, 7]: up-regulation
- expression of MECL1 [3, 7]: up-regulation
- LMP2 expression in splenocytes (LMP2): down-regulation
- three proteolytic activities of proteasomes ([4]; proteasomes from MIN and MON LCL's treated with 0.1 μg/ml of Tat (data not shown)): increase of all three proteolytic activities
- chymotryptic-like, tryptic-like and post-acidic activities of proteasomes ([4]; proteasomes from MIN-Tat and MON-Tat cells vs control cells): higher
